Data on one compound can be found in patent US20050107682A1, “fMRI system for use in assessing the efficacy of therapies in treating CNS disorders” (priority 2003, published 2005).

The subject of this assay is PD patients. The assay is described as follows: fMRI of PD patients performing paced finger tapping (PFT), on and off dopamine supplementation. The assay is classed as in vivo. As for the experimental part: In this fMRI study, ten PD patients and thirteen healthy age-matched controls were imaged while performing the PFT. PD patients underwent two imaging sessions, one on and the other off dopamine supplementation. For this study whole-brain fMRI was performed on a 1.5 Tesla General Electric Signa scanner equipped with a 3-axis local gradient head coil and an elliptical end-capped quadrature radiofrequency coil. Foam padding was used to limit head motion within the coil. Echo-planar images were collected using a single-shot, blipped gradient-echo echo-planar pulse sequence (TE=40 ms, TR=3.0 seconds, 90° flip angle, FOV=240 mm, matrix=64×64). Twenty-two contiguous sagittal 6 mm thick slices were collected to provide coverage of the entire brain (voxel size 3.75×3.75×6 mm). Overall, a total of 136 images were collected per run. Prior to functional imaging, high-resolution, three-dimensional, spoiled gradient-recalled at steady-state (GRASS) anatomic images were collected (TE=5 ms, TR=24 ms, 40° flip angle, NEX=1, slice thickness=1.2 mm, FOV=24 cm, matrix=256×128) for anatomic localization and co-registration.

Consider `N[C@@H](Cc1ccc(O)c(O)c1)C(=O)O` [Levodopa], for which the “effect on the S task (fMRI activation)” value (PD patients ON vs OFF medication, S condition of PFT task) was “relatively little effect”. For the same compound, the “spatial extent of activation within the SMC, SMA, and putamen” value (PD patients, fMRI during PFT, on vs off dopamine replacement) is given as “increase”. Besides, the brain activation patterns result (PD patients, fMRI during PFT, relative to healthy controls) is recorded as “partially “normalized””. Also, the PFT performance entry (PD patients, on vs off dopamine supplementation) is listed as “lack of improvement”.
